Experimental data published in US8957082B2, “Tetrahydropyrrolopyrimidinediones and their use in therapy” (Chiesi Farmaceutici S.p.A, priority 2006, dated 2015).

How the values were obtained:
[1] = target: T1, human neutrophil elastase (HNE) (Homo sapiens, UniProt P08246); experiment: HNE induced lung haemorrhage in the rat; assay type: in vivo; conditions: for reducing the quantity of blood haemorrhaged relative to control: male Sprague Dawley rats, compound dosed locally to the lung (i.t. or i.n.) before HNE, blood in BALF one hour post HNE challenge
T1 sequence (P08246 30-267): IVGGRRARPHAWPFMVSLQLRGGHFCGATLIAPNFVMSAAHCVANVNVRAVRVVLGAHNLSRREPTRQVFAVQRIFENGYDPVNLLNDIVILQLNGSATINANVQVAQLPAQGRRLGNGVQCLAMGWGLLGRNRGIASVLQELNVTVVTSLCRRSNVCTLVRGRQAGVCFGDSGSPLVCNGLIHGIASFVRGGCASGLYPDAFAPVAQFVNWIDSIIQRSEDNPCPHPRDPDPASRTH
Excerpt: HNE Induced Lung Haemorrhage in the Rat
Instillation of human neutrophil elastase (HNE) into rat lung causes acute lung damage. The extent of this injury can be assessed by measuring lung haemorrhage. Male Sprague Dawley rats (175-220 g) were obtained from Harlan UK Ltd., full barrier-bred and certified free from specified micro-organisms on receipt. Animals were weighed and randomly assigned to treatment groups (7-12 animals per group).
The vehicle used was 1% DMSO/Saline. Inhibitors were dissolved in 1% DMSO before the addition of 0.9% saline.
Animals in each study used to determine the efficacy of the elastase inhibitors delivered locally to the lung by a variety of routes. Rats were anaesthetised with the inhaled anaesthetic isoflurane (4%) when the dose was given from 30 minutes to 6 h prior to human neutrophil elastase ([…]) administration or terminally anaesthetised with hypnorm:hypnovel:water (1.5:1:2 at 2.7 ml/kg) when the predose was given at less than 30 minutes prior to HNE administration and dosed either intratracheally (i.t.) by transoral administration using a Penn Century microsprayer or intranasally (i.n.) by dropping the fluid on to the nares. Animals either received vehicle or compound at a dose volume of 0.5 ml/kg.
Animals that had been allowed to recover after dosing were terminally anaesthetised with hypnorm:hypnovel:water (1.5:1:2 at 2.7 ml/kg). Once sufficiently anaesthetised, HNE (600 units/ml) or sterile saline was administered by transoral tracheal instillation at a volume of 100 μl using a Penn Century microsprayer. Animals were kept warm in a temperature controlled box and given top up doses of anaesthetic as required to ensure continuous anaesthesia until termination.
Animals were sacrificed (0.5 ml to 1 ml sodium pentobarbitone) one hour post HNE challenge. The trachea was exposed and a small incision made between two tracheal rings allowing a cannula (10 gauge, O.D. 2-10 mm, Portex Ltd.) to be inserted approximately 2 cm into the trachea towards the lung. This was secured into place with a cotton ligature. The lungs were then lavaged (BAL) three times with fresh 4 ml aliquots of heparinised (10 units/ml) phosphate buffered saline (PBS). The resultant BALF was kept on ice until it was centrifuged.
The BALF was centrifuged at 1000 r.p.m. for 10 minutes in a centrifuge cooled to between 4 and 10° C. The supernatant was discarded and the cell pellet resuspended in 1 ml 0.1% CETAB/PBS to lyse the cells. Cell lysates were frozen until spectrophotometric analysis for blood content could be made. Standards were prepared by making solutions of whole rat blood in 0.1% CETAB/PBS.
Once defrosted 100 μl of each lysed cell suspension was placed into a separate well of a 96 well flat bottomed plate. All samples were tested in duplicate and 100 μl 0.1% CETAB/PBS was included on the plate as a blank. The OD of the contents of each well was measured at 415 nm using a spectramax 250 (Molecular devices).
A standard curve was constructed by measuring the OD (at 415 nm) of different concentrations of blood in 0.1% CETAB/PBS (30, 10, 7, 3, 1, 0.3, 0.1 μl/ml).
The amount of blood in each experimental sample was calculated by comparison to the standard curve. Data were then analysed as below:
1) The mean OD for duplicates was calculated
2) The value for the blank was subtracted from the value for all other samples
3) Data were assessed to evaluate the normality of distribution.

[2] = target: T2, human leukocyte elastase (HNE) (Homo sapiens, UniProt P08246); experiment: HNE inhibitory activity (fluorescent peptide substrate / fluorescently labelled elastin assays); assay type: biochemical; conditions: which of the two substrate assays is not stated
T2 construct: purchased Sigma E8140
T2 sequence (P08246 30-247 limits assumed): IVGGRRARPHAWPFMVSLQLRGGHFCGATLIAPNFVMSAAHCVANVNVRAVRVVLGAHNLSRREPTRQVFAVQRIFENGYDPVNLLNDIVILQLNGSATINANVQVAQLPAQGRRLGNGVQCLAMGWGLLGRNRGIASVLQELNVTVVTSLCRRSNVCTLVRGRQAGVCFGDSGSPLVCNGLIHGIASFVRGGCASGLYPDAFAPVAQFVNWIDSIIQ
Protocol: Compounds of the invention were tested for their HNE inhibitory activity.
Fluorescent Peptide Substrate
Assays were performed in 96-well plates at a total assay volume of 100 μl. The final concentration of the enzyme (human leukocyte elastase, Sigma E8140) was 0.00036 units/well. A peptide substrate (MeO-Suc-Ala-Ala-Pro-ValAMC, Calbiochem #324745) was used, at the final concentration of 100 μM. The final concentration of DMSO was 1% in the assay buffer (0.05M Tris.HCl, pH 7.5, 0.1M NaCl; 0.1M CaCl2; 0.0005% brij-35).
The enzymatic reaction was started by adding the enzyme. The enzymatic reaction was performed at RT and after 30 mins stopped by adding 50 μl soybean trypsin inhibitor (Sigma T-9003) at a final concentration of 50 μg/well. Fluorescence was read on the FLEXstation (Molecular Devices) using 380 nm excitation and 460 nm emission filters. […] The results are means of two independent experiments, each performed in duplicate.
Using Fluorescently Labelled Elastin
Assays were performed in 96-well plate at a total assay volume of 100 μl. The final concentration of the enzyme (human leukocyte elastase, Sigma E8140) was 0.002 units/well. […]
The enzymatic reaction was started by adding the enzyme. The enzymatic reaction was performed at RT and read after 120 minutes. Fluorescence was read on the FLEXstation (Molecular Devices) using 485 nm excitation and 530 nm emission filters. […]

Structure (SMILES)	reducing the quantity of blood haemorrhaged relative to control [1]	IC50 [2]	reduction in haemorrhage relative to control ([1]; rat, 30 mg/kg it, 1 hour prior to HNE, statistically significant)
CN(CCCN1CC2=C(C1=O)[C@@H](c1ccc(C#N)cc1)NC(=O)N2c1cccc(C(F)(F)F)c1)CCCN1CC2=C(C1=O)[C@@H](c1ccc(C#N)cc1)NC(=O)N2c1cccc(C(F)(F)F)c1 [Example 17]	effective in reducing the quantity of blood haemorrhaged	–	–
N#Cc1ccc([C@H]2NC(=O)N(c3cccc(C(F)(F)F)c3)C3=C2C(=O)N(CCCNCCCN2CC4=C(C2=O)[C@@H](c2ccc(C#N)cc2)NC(=O)N4c2cccc(C(F)(F)F)c2)C3)cc1.O=CO [Example 18]	effective in reducing the quantity of blood haemorrhaged	–	–
CN(CCCN1CC2=C(C1=O)[C@@H](c1ccc(I)cc1)NC(=O)N2c1cccc(C(F)(F)F)c1)CCCN1CC2=C(C1=O)[C@@H](c1ccc(I)cc1)NC(=O)N2c1cccc(C(F)(F)F)c1 [Example 23]	–	50 to 500 nM	–
CCN1CC2=C(C1=O)[C@@H](c1ccc(C#N)cc1)N(CC(=O)NCCNC(=N)NCCNC(=O)CN1C(=O)N(c3cccc(C(F)(F)F)c3)C3=C(C(=O)N(CC)C3)[C@H]1c1ccc(C#N)cc1)C(=O)N2c1cccc(C(F)(F)F)c1 [Example 30]	effective in reducing the quantity of blood haemorrhaged	–	–
C[N+](C)(CCCN1CC2=C(C1=O)[C@@H](c1ccc(C#N)cc1)NC(=O)N2c1cccc(C(F)(F)F)c1)CCCN1CC2=C(C1=O)[C@@H](c1ccc(C#N)cc1)NC(=O)N2c1cccc(C(F)(F)F)c1.[I-] [Example 32]	effective in reducing the quantity of blood haemorrhaged	–	67%
C[N+](C)(CCCN1CC2=C(C1=O)[C@@H](c1ccc(C#N)cc1)N(CC(=O)O)C(=O)N2c1cccc(C(F)(F)F)c1)CCCN1CC2=C(C1=O)[C@@H](c1ccc(C#N)cc1)N(CC(=O)O)C(=O)N2c1cccc(C(F)(F)F)c1.O=C([O-])C(F)(F)F [Example 41]	effective in reducing the quantity of blood haemorrhaged	–	–
N#Cc1ccc([C@H]2NC(=O)N(c3cccc(C(F)(F)F)c3)C3=C2C(=O)N(CCN2CCN(CCN4CC5=C(C4=O)[C@@H](c4ccc(C#N)cc4)NC(=O)N5c4cccc(C(F)(F)F)c4)C2=N)C3)cc1 [Example 43]	effective in reducing the quantity of blood haemorrhaged	–	–
C[N+](CCCN1CC2=C(C1=O)[C@@H](c1ccc(C#N)cc1)NC(=O)N2c1cccc(C(F)(F)F)c1)(CCCN1CC2=C(C1=O)[C@@H](c1ccc(C#N)cc1)NC(=O)N2c1cccc(C(F)(F)F)c1)CC(=O)[O-] [Example 49]	effective in reducing the quantity of blood haemorrhaged	–	–
C[N+](C)(CCCN1CC2=C(C1=O)[C@@H](c1ccc(C#N)cc1)NC(=O)N2c1cccc(C(F)(F)F)c1)CCCN1CC2=C(C1=O)[C@@H](c1ccc(C#N)cc1)NC(=O)N2c1cccc(C(F)(F)F)c1.O=C[O-] [Example 59]	effective in reducing the quantity of blood haemorrhaged	–	–
C[N+](C)(CCCCN1CC2=C(C1=O)[C@@H](c1ccc(C#N)cc1)NC(=O)N2c1cccc(C(F)(F)F)c1)CCCOc1ccccc1.[Br-] [Example 61]	effective in reducing the quantity of blood haemorrhaged	–	–
C[N+](CCCCN1CC2=C(C1=O)[C@@H](c1ccc(C#N)cc1)NC(=O)N2c1cccc(C(F)(F)F)c1)(CCCOc1ccccc1)CCCOc1ccccc1.O=C[O-] [Example 64]	effective in reducing the quantity of blood haemorrhaged	–	–
